Reference: PubChem BioAssay (NCI)
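Results reflect a 48-hour exposure of cells in 96-well plates to compound at five concentrations. GI50 = concentration required for 50% inhibition of growth. At the TGI there is no net growth.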

Key:
Assay in all cases: DTP human tumour cell line panel, 48 h; in the data active = GI50 below about 0.43 µM; inactive = the rest
[1] = tested on: COLO 205 colon
[2] = tested on: U251 CNS
[3] = tested on: EKVX NSCLC
[4] = tested on: ACHN renal
[5] = tested on: MOLT-4 leukemia
[6] = tested on: NCI-H23 lung
[7] = tested on: NCI-H226 lung
[8] = tested on: HT29 colon
[9] = tested on: M14 melanoma
[10] = tested on: OVCAR-3 ovarian
[11] = tested on: MCF7 breast
[12] = tested on: SK-MEL-5 melanoma
[13] = tested on: T-47D breast
[14] = tested on: SNB-75 CNS
[15] = tested on: NCI/ADR-RES ovarian
[16] = tested on: MDA-MB-231 breast
[17] = tested on: RPMI-8226 leukemia
[18] = tested on: HCT-116 colon
[19] = tested on: HS 578T breast
[20] = tested on: SN12C renal
[21] = tested on: SK-OV-3 ovarian
[22] = tested on: SW-620 colon
[23] = tested on: SF-295 CNS
[24] = tested on: LOX IMVI melanoma
[25] = tested on: RXF 393 renal
[26] = tested on: OVCAR-4 ovarian
[27] = tested on: SK-MEL-2 melanoma
[28] = tested on: PC-3 prostate
[29] = tested on: SK-MEL-28 melanoma
[30] = tested on: HCT-15 colon
[31] = tested on: BT-549 breast
[32] = tested on: HCC-2998 colon
[33] = tested on: NCI-H522 lung
[34] = tested on: TK-10 renal
[35] = tested on: OVCAR-5 ovarian
[36] = tested on: HL-60(TB) leukemia
[37] = tested on: SR leukemia
[38] = tested on: HOP-62 NSCLC
[39] = tested on: NCI-H460 lung
[40] = tested on: A549 NSCLC
[41] = tested on: MDA-MB-435
[42] = tested on: UACC-257 melanoma
[43] = tested on: 786-0 renal
[44] = tested on: K-562 leukemia
[45] = tested on: SF-539 CNS
[46] = tested on: UACC-62 melanoma
[47] = tested on: IGROV1 ovarian
[48] = tested on: CAKI-1 renal
[49] = tested on: SNB-19 CNS
[50] = tested on: OVCAR-8 ovarian
[51] = tested on: KM12 colon
[52] = tested on: DU-145 prostate
[53] = tested on: MALME-3M melanoma
[54] = tested on: UO-31 renal
[55] = tested on: SF-268 CNS
[56] = tested on: HOP-92 NSCLC
[57] = tested on: CCRF-CEM leukemia
[58] = tested on: A498 renal

Cc1cc(S(N)(=O)=O)c(S/C(CC(C)C)=N\Nc2ccc([N+](=O)[O-])cc2)cc1Cl
17.8 µM: TGI [39]
20.5 µM: TGI [26]
25 µM: TGI [53]
13 µM: TGI [18]
31.2 µM: TGI [30]
52.8 µM: TGI [50]
18.7 µM: TGI [14]
12.6 µM: TGI [6]
> 100 µM: TGI [5] | TGI [36]
26.4 µM: TGI [38]
28 µM: TGI [52]
7.27 µM: TGI [11]
27.9 µM: TGI [35]
19.8 µM: TGI [43]
30.1 µM: TGI [19]
97 µM: TGI [44]
29.9 µM: TGI [22]
7.28 µM: TGI [17]
27.2 µM: TGI [40]
8.89 µM: TGI [46]
27.8 µM: TGI [29]
9.52 µM: TGI [16]
31.3 µM: TGI [3]
21.2 µM: TGI [47]
28.2 µM: TGI [21]
6.27 µM: TGI [32]
5.7 µM: TGI [23]
7.77 µM: TGI [7]
23.2 µM: TGI [12]
29.2 µM: TGI [24]
17.4 µM: TGI [4]
9.88 µM: TGI [20]
6.85 µM: TGI [48]
33.8 µM: TGI [42]
inactive: GI50 [1] 6.46 µM | GI50 [2] 10.6 µM | GI50 [3] 16.6 µM | GI50 [4] 5.44 µM | GI50 [5] 4.57 µM | GI50 [6] 3.74 µM | GI50 [7] 2.82 µM | GI50 [8] 3.88 µM | GI50 [9] 4.99 µM | GI50 [10] 3.19 µM | GI50 [11] 2.36 µM | GI50 [12] 11 µM | GI50 [13] 3.1 µM | GI50 [14] 4.05 µM | GI50 [15] 5.9 µM | GI50 [16] 2.77 µM | GI50 [17] 2.58 µM | GI50 [18] 3.53 µM | GI50 [19] 11.9 µM | GI50 [20] 2.76 µM | GI50 [21] 13.7 µM | GI50 [22] 8.82 µM | GI50 [23] 2.31 µM | GI50 [24] 5.81 µM | GI50 [25] 4.13 µM | GI50 [26] 5.01 µM | GI50 [27] 8.22 µM | GI50 [28] 3.16 µM | GI50 [29] 13.9 µM | GI50 [30] 5.22 µM | GI50 [31] 17.7 µM | GI50 [32] 2.46 µM | GI50 [33] 18.8 µM | GI50 [34] 2.93 µM | GI50 [35] 14.8 µM | GI50 [36] 7.07 µM | GI50 [37] 1.84 µM | GI50 [38] 13.5 µM | GI50 [39] 4.09 µM | GI50 [40] 9.46 µM | GI50 [41] 2.92 µM | GI50 [42] 16.4 µM | GI50 [43] 7.15 µM | GI50 [44] 5.82 µM | GI50 [45] 16.2 µM | GI50 [46] 3.13 µM | GI50 [47] 6.77 µM | GI50 [48] 2.24 µM | GI50 [49] 13.2 µM | GI50 [50] 16.9 µM | GI50 [51] 3.32 µM | GI50 [52] 14.4 µM | GI50 [53] 12.5 µM | GI50 [54] 11.1 µM | GI50 [55] 7.21 µM
23.6 µM: TGI [54]
13.2 µM: TGI [51]
31.7 µM: TGI [31]
16.5 µM: TGI [9]
15.3 µM: TGI [8]
6.26 µM: TGI [37]
20.9 µM: TGI [1]
72.2 µM: TGI [33]
9.42 µM: TGI [41]
19.2 µM: TGI [15]
23.1 µM: TGI [55]
27.3 µM: TGI [49]
25.5 µM: TGI [2]
29.7 µM: TGI [45]
8.33 µM: TGI [13] | TGI [34]
7.07 µM: TGI [10]
11.9 µM: TGI [28]
19 µM: TGI [25]
34.6 µM: TGI [27]

Cc1ccccc1N=Nc1ccc(NC(=O)c2ccnn2C)c(C)c1
33.5 µM: TGI [14]
78.2 µM: TGI [16]
inactive: GI50 [1] > 100 µM | GI50 [2] 24 µM | GI50 [3] 7.72 µM | GI50 [4] 23.9 µM | GI50 [56] 6.99 µM | GI50 [6] 18.7 µM | GI50 [7] 15 µM | GI50 [8] > 100 µM | GI50 [9] 32.4 µM | GI50 [10] > 100 µM | GI50 [11] 17.8 µM | GI50 [12] 4.99 µM | GI50 [57] 43.3 µM | GI50 [13] 9.9 µM | GI50 [14] 3.66 µM | GI50 [15] 63.7 µM | GI50 [16] 20.2 µM | GI50 [17] 3.41 µM | GI50 [18] 5.99 µM | GI50 [19] 22.1 µM | GI50 [20] 97.1 µM | GI50 [21] 24 µM | GI50 [22] > 100 µM | GI50 [23] 23.9 µM | GI50 [24] 72.2 µM | GI50 [25] 18.5 µM | GI50 [26] 8.71 µM | GI50 [27] 28.6 µM | GI50 [28] 92.7 µM | GI50 [29] > 100 µM | GI50 [30] 68.4 µM | GI50 [31] 8.53 µM | GI50 [32] > 100 µM | GI50 [33] 30 µM | GI50 [34] 20.5 µM | GI50 [35] > 100 µM | GI50 [38] 29.4 µM | GI50 [39] 26.5 µM | GI50 [40] 73.9 µM | GI50 [41] 54.9 µM | GI50 [42] 49 µM | GI50 [43] 18.8 µM | GI50 [45] 36.5 µM | GI50 [46] 97.2 µM | GI50 [47] 25.1 µM | GI50 [48] 55.4 µM | GI50 [49] 24.4 µM | GI50 [50] 98.5 µM | GI50 [51] > 100 µM | GI50 [58] 13.2 µM | GI50 [52] > 100 µM | GI50 [53] 14.5 µM | GI50 [54] 11.2 µM | GI50 [55] 31.7 µM
72.2 µM: TGI [12]
> 100 µM: TGI [1] | TGI [2] | TGI [3] | TGI [4] | TGI [6] | TGI [8] | TGI [9] | TGI [10] | TGI [11] | TGI [57] | TGI [13] | TGI [15] | TGI [17] | TGI [18] | TGI [19] | TGI [20] | TGI [21] | TGI [22] | TGI [23] | TGI [24] | TGI [26] | TGI [27] | TGI [28] | TGI [29] | TGI [30] | TGI [31] | TGI [32] | TGI [33] | TGI [34] | TGI [35] | TGI [38] | TGI [39] | TGI [40] | TGI [41] | TGI [42] | TGI [43] | TGI [45] | TGI [46] | TGI [47] | TGI [48] | TGI [49] | TGI [50] | TGI [51] | TGI [52] | TGI [53] | TGI [54] | TGI [55]
42.6 µM: TGI [58]
89.6 µM: TGI [7]
34.9 µM: TGI [56]
47.2 µM: TGI [25]
